Reference: patent publication US12060333B2 (Hoffmann-La Roche Inc., priority 2021, dated 2024)
Where “and” joins values, the source holds several entries; their conditions need not be identical. Identical values can stand only once. Like-named read-outs stand apart in the source and are kept apart here.

Assays:
SARS-CoV 3CLpro = SARS-CoV 3CLpro (Severe acute respiratory syndrome coronavirus, UniProt P0C6X7); assay: biochemical
MERS-CoV 3CLpro = MERS-CoV 3CLpro (Middle East respiratory syndrome-related coronavirus, UniProt K9N7C7); assay: biochemical
SARS-CoV-2 3CLpro = SARS-CoV-2 3CLpro (Severe acute respiratory syndrome coronavirus 2, UniProt P0DTD1); assay: biochemical
HCoV-229E 3CLpro = HCoV-229E 3CLpro (Human coronavirus 229E, UniProt P0C6X1); assay: HCoV-229E 3CLpro inhibition assay (FRET); format: biochemical; conditions: protease 25 nM, FRET substrate 15 μM, pre-incubated 1 hr, read-out: 229E (activity in different coronaviruses)
Procedure: HCoV-229E 3CL^pro inhibition assay
The HCoV-229E 3CL^pro was expressed in E. coli BL21 (DE3) with the protein sequence of
For the HCoV-229E 3CL^pro assay, 2 μL of […] recombinant HCoV-229E 3CL protease were mixed with serial dilutions of each compound in 4 μL assay buffer containing 40 mM HEPES, pH=8.0, 1 mM CHAPS, 150 mM NaCl, 1 mM EDTA, 1 mM TCEP in a well of a 384-well plate and pre-incubated at rt for 1 hr. The custom-synthesized fluorogenic 3CL^pro peptide substrate used in the assay is as follows: FAM-[…]-TAMRA (peptide sequence according to SEQ ID NO: 3). This FRET-based substrate contains a FAM fluorophore attached at the N-terminus of a canonical 3CL^pro peptide substrate. The fluorophore is internally quenched by the TAMRA. The reaction was initiated by the addition of 10 μL of the substrate with a final concentration of 15 μM and each well was incubated at RT for 30 mins. The final concentration of the protease used at the assay was 25 nM and each compound was at a final concentration range of 100-0.0016 μM. The IC50 value which is the value causing 50% inhibition of the catalytic activity of the HCoV-229E 3CL^pro was calculated by four parameters equation analysis.

[1] = IC50 (μM), SARS-CoV-2 3CLPro assay

## CC(C)C[C@H](NC(=O)c1cc2ccccc2[nH]1)C(=O)NN(CCC(N)=O)C(=O)CCl [Example 28, N-[(1S)-1-[[(3-amino-3-oxo-propyl)-(2-chloroacetyl)amino]carbamoyl]-3-methyl-butyl]-1H-indole-2-carboxamide]
SARS-CoV 3CLpro
  IC50: 16 nM
MERS-CoV 3CLpro
  IC50: 50 nM
SARS-CoV-2 3CLpro; read-out: IC50 (μM), SARS-CoV-2 3CLPro assay
  IC50: 0.007 µM
HCoV-229E 3CLpro
  IC50: 13 nM

## CC(C)C[C@H](NC(=O)c1cc2ccccc2[nH]1)C(=O)NN(C[C@@H]1CCNC1=O)C(=O)CCl (single isomer, unassigned) [Example 51-A]
SARS-CoV 3CLpro
  IC50: 15 nM
MERS-CoV 3CLpro
  IC50: 60 nM
SARS-CoV-2 3CLpro; [1]
  IC50: 0.004 µM and 0.0027 µM
HCoV-229E 3CLpro
  IC50: 17 nM

## CC1(C[C@H](NC(=O)c2cc(C(F)F)on2)C(=O)NN(C[C@@H]2CCNC2=O)C(=O)[C@H](F)Cl)CC1 [Example 100, N-[(1S)-2-[2-[(2R)-2-chloro-2-fluoro-acetyl]-2-[[(3S)-2-axopyrrolidin-3-yl]methyl]hydrazino]-1-[(1-methylcyclopropyl)methyl]-2-axo-ethyl]-5-(difluoromethyl)isoxazole-3-carboxamide]
SARS-CoV 3CLpro
  IC50: 31 nM
MERS-CoV 3CLpro
  IC50: 94 nM
SARS-CoV-2 3CLpro; [1]
  IC50: 0.024 µM
HCoV-229E 3CLpro
  IC50: 28 nM

## Cc1cc(C(=O)N[C@@H](CC2(C)CC2)C(=O)NN(C[C@@H]2CCNC2=O)C(=O)[C@H](F)Cl)no1 [Example 70, N-[(1S)-2-[2-[(2R)-2-chloro-2-fluoro-acetyl]-2-[[(3S)-2-axopyrrolidin-3-yl]methyl]hydrazino]-1-[(1-methylcyclopropyl)methyl]-2-axo-ethyl]-5-methyl-isoxazole-3-carboxamide]
SARS-CoV 3CLpro
  IC50: 94 nM
MERS-CoV 3CLpro
  IC50: 54 nM
SARS-CoV-2 3CLpro; [1]
  IC50: 0.059 µM
HCoV-229E 3CLpro
  IC50: 24 nM
